Measured values from PubChem BioAssay AID1259246 (Broad Institute, 2017).
Inconclusive results are not listed. Activity calls are given as the source filed them.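 The calls were made as follows: active = valid dose-response fit whose half-maximal growth-inhibiting concentration is at or below a set limit above the top tested dose; inconclusive = flat fit with effect between 30 and 70%, or poor fit; inactive = half-maximal concentration above a set limit.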

assay: antibacterial activity against Clostridioides difficile – 10-point retest, dose response (AID 1259246); settings: Clostridioides difficile clinical isolate growth, OD600, 24 h; at 60 µM (top of the series)

Compound	activity change, negative = inhibition
C/C=C/c1ccc2c(c1)O[C@@H](CN(C)Cc1ccc(C(=O)O)cc1)[C@H](C)CN([C@H](C)CO)S2(=O)=O	8.2% (inactive)
O=C(C[C@H]1C[C@@H]2c3cc(NC(=O)C4CCC4)ccc3O[C@@H]2[C@@H](CO)O1)NCCc1ccccc1	0.211% (inactive)
CC(C)CC#Cc1ccc2c(c1)O[C@@H](CN(C)Cc1ccc(C(=O)O)cc1)[C@H](C)CN([C@@H](C)CO)S2(=O)=O	2.34% (inactive)
C[C@@H]1CN([C@H](C)CO)S(=O)(=O)c2ccc(/C=C/c3ccccc3)cc2O[C@H]1CN(C)Cc1ccccc1	2.59% (inactive)
COCC#Cc1ccc2c(c1)O[C@H](CN(C)Cc1ccc3c(c1)OCO3)[C@H](C)CN([C@@H](C)CO)S2(=O)=O	6.47% (inactive)
O=C(C[C@@H]1C[C@H]2c3cc(NC(=O)Nc4ccc(F)cc4)ccc3O[C@H]2[C@H](CO)O1)NC1CCCCC1	6.83% (inactive)

same assay, conditions: Clostridioides difficile clinical isolate growth, OD600, 24 h; at 120 µM (top of the series)

Compound	activity change, negative = inhibition
O=S(=O)(NCC[C@H]1CC[C@H](NS(=O)(=O)c2ccccc2Cl)[C@H](CO)O1)c1ccc(Cl)cc1	-7.26% (inactive)
Cc1cc(C(=O)Nc2cccc3c2O[C@H](CN(C)Cc2ccc(-c4ccccc4)cc2)[C@H](C)CN([C@@H](C)CO)C3=O)n(C)n1	0.388% (inactive)
C[C@@H]1CN([C@@H](C)CO)C(=O)Cc2cc(N(C)C)ccc2O[C@@H]1CN(C)Cc1ccc(Oc2ccccc2)cc1	12.4% (inactive)
C[C@H](CO)N1C[C@H](C)[C@@H](CN(C)C(=O)NC2CCCCC2)Oc2c(NC(=O)Nc3ccc(C(F)(F)F)cc3)cccc2C1=O	28.9% (inactive)
C[C@H](CO)N1C[C@H](C)[C@H](CN(C)Cc2ccc(-c3ccccc3)cc2)Oc2ccc(NC(=O)CCCN(C)C)cc2CC1=O	37.3% (inactive)
C[C@@H]1CN([C@H](C)CO)C(=O)c2cccc(NC(=O)Nc3ccc(C(F)(F)F)cc3)c2O[C@@H]1CN(C)C(=O)Nc1ccc(F)cc1	-4.05% (inactive)
C[C@H]1CN([C@@H](C)CO)S(=O)(=O)c2ccc(C#Cc3ccccc3F)cc2O[C@@H]1CN(C)C	10.1% (inactive)
C[C@@H]1CCCCO[C@H](CN(C)S(=O)(=O)c2ccc(F)cc2)[C@H](C)CN([C@H](C)CO)C(=O)c2cc(NC(=O)Nc3cccc4ccccc34)ccc2O1	23.1% (inactive)
C/C=C/c1ccc2c(c1)O[C@@H](CN(C)Cc1ccc(C(=O)O)cc1)[C@H](C)CN([C@@H](C)CO)S2(=O)=O	-3.63% (inactive)
C[C@H](CO)N1C[C@H](C)[C@H](CN(C)S(=O)(=O)c2ccc(F)cc2)OCCCC[C@H](C)Oc2ccc(NC(=O)Nc3cccc4ccccc34)cc2C1=O	34.7% (inactive)
C[C@@H]1CN([C@H](C)CO)S(=O)(=O)c2ccc(C#CCN(C)C)cc2O[C@@H]1CN(C)Cc1ccc2c(c1)OCO2	0.003% (inactive)
COc1cccc(NC(=O)N(C)C[C@@H]2Oc3cc(/C=C/c4ccccc4)ccc3S(=O)(=O)N([C@@H](C)CO)C[C@H]2C)c1	19.6% (inactive)
CO[C@H]1CN(C)C(=O)c2cc(NC(=O)c3nc4ccccc4s3)ccc2OC[C@H](C)N(Cc2ccncc2)C[C@@H]1C	4.91% (inactive)
C[C@@H]1CN([C@@H](C)CO)C(=O)c2cccc(NC(=O)Nc3ccc4c(c3)OCO4)c2O[C@@H]1CN(C)Cc1ccccc1	19.1% (inactive)
O=C(C[C@H]1C[C@@H]2c3cc(NS(=O)(=O)c4ccc(F)cc4)ccc3O[C@@H]2[C@H](CO)O1)NCc1ccc(-c2ccccc2)cc1	25.5% (inactive)
CNC[C@@H]1Oc2cc(C#CCC(C)C)ccc2S(=O)(=O)N([C@@H](C)CO)C[C@H]1C	21.5% (inactive)
O=C(C[C@@H]1C[C@@H]2c3cc(NC(=O)Nc4ccc(F)cc4)ccc3O[C@@H]2[C@H](CO)O1)NC1CCCCC1	-4.54% (inactive)
C[C@H]1CN([C@@H](C)CO)C(=O)Cc2cc(NC(=O)CCCN(C)C)ccc2O[C@H]1CN(C)Cc1ccc(-c2ccccc2)cc1	20.8% (inactive)
COc1ccc(CN2C[C@@H](C)[C@H](OC)CN(C)C(=O)c3ccc(NC(=O)c4nc5ccccc5s4)cc3OC[C@H]2C)cc1	22.7% (inactive)
C[C@@H]1CN([C@H](C)CO)C(=O)Cc2cc(NC(=O)C3CCCCC3)ccc2O[C@@H]1CN(C)Cc1ccc(-c2ccccc2)cc1	25.3% (inactive)
CO[C@H]1CN(C)C(=O)c2ccc(NC(=O)c3nc4ccccc4s3)cc2OC[C@H](C)NC[C@@H]1C	-6.99% (inactive)
C[C@@H]1CN([C@H](C)CO)S(=O)(=O)c2ccc(C3=CCCCC3)cc2O[C@H]1CN(C)Cc1cccnc1	19% (inactive)
C[C@@H]1CCCCO[C@@H](CN(C)S(=O)(=O)c2ccc(F)cc2)[C@H](C)CN([C@@H](C)CO)C(=O)c2cc(NC(=O)Nc3cccc4ccccc34)ccc2O1	18.9% (inactive)
